Results: publication PMC5618418, “Pharmacokinetics of Jaspine B and Enhancement of Intestinal Absorption of Jaspine B in the Presence of Bile Acid in Rats” (Marine Drugs, 2017)
Like-named read-outs stand apart in the source and are kept apart here.

Key:
MCF-7 = test system: MCF-7; set-up: method as in doi:10.5352/JLS.2016.26.12.1392; conditions: MCF-7 breast cancer cells; cited from earlier work
[1] = Pharmacokinetics after intravenous injection (plasma, bile, urine); format: in vivo, rat; conditions: for half-life: iv, 10 mg/kg
Description: (§1) Male SD rats (aged 8–9 weeks, weighing 250–300 g) were obtained from Samtako Bio Korea, Inc. (Osan, Korea). The rats were acclimatized for 1 week in a temperature-controlled room (23 ± 2 °C) with a 12-h illumination cycle. Food and water were given ad libitum. All animal procedures were approved by the Animal Care and Use Committee of the Kyungpook National University (No. 2015-0064). The rats were fasted for at least 12 h before the oral administration of drugs.
(§2) The femoral artery, femoral vein, and bile duct were cannulated with polyethylene tubes (PE-50 and PE-10; Jungdo, Seoul, Korea) under light anesthesia with isoflurane.
For intravenous (IV) dosing, Jaspine B was dissolved in a vehicle containing DMSO: PEG400: saline (2:4:4, v/v/v) and was IV-injected via the femoral vein at 10 mg/kg (vehicle volume, 1 mL/kg). Blood samples were collected from the femoral artery at 0, 0.083, 0.167, 0.25, 0.5, 1, 2, 4, 6, 8, and 12 h following the IV administration of Jaspine B. Bile and urine samples were collected every 2 h for a total of 12 h. After centrifugation of blood samples at 13,200 rpm for 10 min, aliquots of 50 μL of plasma, bile, and urine were stored at −80 °C until the analysis of Jaspine B.
Aliquots (50 μL) of plasma, bile, feces homogenates, and urine samples were added to 250 μL of acetonitrile containing 0.5 ng/mL of berberine (an internal standard). After vortexing for 10 min and centrifugation at 13,200 rpm for 5 min, an aliquot (2 μL) of the supernatant was injected directly into the LC-MS/MS system. For the analysis of plasma concentration, the standard curve range was 25–5000 ng/mL and the concentrations of quality control (QC) samples were 75, 500, and 3000 ng/mL, as described previously. Concentrations of Jaspine B in urine, bile, and feces homogenates were 5–300 ng/mL, 20–5000 ng/mL, and 20–5000 ng/mL, respectively. The concentrations of QC samples were 15, 100, and 300 ng/mL for urine samples and 75, 500, and 3000 ng/mL for bile and feces homogenates.
(§3) Pharmacokinetic parameters were determined using a non-compartmental analysis (WinNonlin® 2.0; Pharsight, Mountain View, CA, USA). Maximum plasma concentration (Cmax) and time to reach Cmax (Tmax) values were obtained from plasma concentration-time curves. The area under the plasma concentration–time curve from zero to infinity (AUC) was calculated using the trapezoidal-extrapolation method. For extrapolation, the area from the last data point to infinity was estimated by dividing the […].
Total systemic clearance (CLtotal) was calculated by dividing IV dose by plasma AUC and the apparent volume of distribution at steady-state (Vss) was calculated by multiplying mean residence time (MRT) by CLtotal.

MDA-MB-435 = test system: MDA-MB-435; set-up: method as in doi:10.5352/JLS.2016.26.12.1392; conditions: MDA-MB-435 melanoma; cited from earlier work
[2] = Pharmacokinetics after oral administration with or without taurocholate in control and bile-depleted rats; format: in vivo; conditions: male, rat, plasma, 30 mg/kg; for bioavailability: oral 30 mg/kg vs IV 10 mg/kg, read-out: BA (oral bioavailability); for AUC(0-inf) / MRT / Tmax / half-life / AUC(0-t) / Cmax: oral 30 mg/kg; for AUC(0-t): read-out: AUC12h
Description: as §1, §2
For oral dosing, Jaspine B was dissolved in a vehicle containing DMSO: PEG400: saline (2:4:4, v/v/v) and was administered by oral gavages at a single dose of 30 mg/kg of Jaspine B concomitantly with or without 60 mg/kg TC (vehicle volume, 3 mL/kg) to the control and bile-depleted rats. Bile depletion was accomplished with 4 h drainage of bile through the bile cannula, which was cannulated to the bile duct using PE-10 tubing.
Blood samples (approximately 250 μL each) were collected from the femoral artery at 0, 0.25, 0.5, 1, 1.5, 2, 4, 8, and 12 h following the oral administration of Jaspine B. After centrifugation of blood samples at 13,200 rpm for 10 min, plasma samples (50 μL) were collected and stored at −80 °C until the analysis by liquid chromatography tandem-mass spectrometry (LC-MS/MS). Aliquots (50 μL) of plasma samples were added to 250 μL of acetonitrile containing 0.5 ng/mL of berberine (an internal standard). After vortexing for 10 min and centrifugation at 13,200 rpm for 5 min, an aliquot (10 μL) of the supernatant was injected directly into the LC-MS/MS system. The standard curve range was 5–2000 ng/mL and the concentrations of quality control (QC) samples were 60, 300, and 2000 ng/mL.
as §3
However, in the case of bile-depleted rats, AUC∞ and T1/2 were not calculated because the elimination rate constant could not be obtained.

786-O = test system: 786-O; set-up: method as in doi:10.5352/JLS.2016.26.12.1392; conditions: 786-O renal carcinoma; cited from earlier work
[3] = male, Sprague-Dawley, rat plasma, IV 10 mg/kg
[4] = SD, bile depletion + TC 60 mg/kg

clearance ([1]; male, Sprague-Dawley, plasma, rat, IV 10 mg/kg, read-out: CLtotal): 98.3 ± 7.7 mL/min/kg
Vd ([1]; male, Sprague-Dawley, plasma, rat, IV 10 mg/kg, read-out: Vss): 21.2 ± 2.6 L/kg
half-life ([1]; male, Sprague-Dawley, rat, plasma, rat plasma, distribution phase, read-out: distribution half-life (converted)): 1.4 h
half-life ([1]; male, Sprague-Dawley, rat, plasma, rat plasma, read-out: T1/2 (terminal half-life) (converted)): 6.7 ± 1.6 h
AUC(0-inf) [1, 3]: 1700 ± 137 ng·h/mL
MRT [1, 3]: 3.6 ± 0.5 h
AUC(0-t) ([1]; male, Sprague-Dawley, rat plasma, IV 10 mg/kg, read-out: AUC12h): 1290 ± 166 ng·h/mL
Xbile ([1]; rat bile, IV 10 mg/kg, 0-12 h): 2.4 ± 0.8 % of dose
Xurine ([1]; rat urine, IV 10 mg/kg, 0-12 h): 0.4 ± 0.2 % of dose
CLbile ([1]; rat, IV 10 mg/kg): 3.1 ± 0.6 mL/min/kg
CLurine ([1]; rat, IV 10 mg/kg): 0.5 ± 0.3 mL/min/kg
contribution of CLbile and CLurine to CLtotal ([1]; rat, IV 10 mg/kg): about 4%
bioavailability ([2]; SD, bile-depleted rats, from AUC12h): 1.6%
bioavailability ([2]; SD, control rats): 6.2%
MRT ([2]; SD, bile-depleted rats): 6.1 ± 0.3 h
Tmax ([2]; SD, bile-depleted rats): 9.3 ± 2.3 h
AUC(0-t) ([2]; SD, bile-depleted rats): 80.3 ± 42.7 ng·h/mL
AUC(0-inf) ([2]; SD, control rats): 314 ± 76.1 ng·h/mL
MRT ([2]; SD, control rats): 4.9 ± 0.4 h
Tmax ([2]; SD, control rats): 2.5 ± 1.3 h
half-life ([2]; SD, control rats): 5.5 ± 1.1 h
AUC(0-t) ([2]; SD, control rats): 241 ± 57.8 ng·h/mL
Cmax ([2]; Sprague-Dawley, bile-depleted rats): 8.5 ± 2.8 ng/mL
Cmax ([2]; Sprague-Dawley, control rats): 36.3 ± 11.3 ng/mL
SMILES: CCCCCCCCCCCCCC[C@@H]1OC[C@H](N)[C@@H]1O [Jaspine B]
IC50 (MCF-7): 2310 nM
IC50 (MDA-MB-435): 2600 nM
bioavailability [2, 4]: 23.5%
bioavailability ([2]; SD, control + TC 60 mg/kg): 41.2%
AUC(0-inf) [2, 4]: 1200 ± 254 ng·h/mL
MRT [2, 4]: 4.9 ± 0.5 h
Tmax [2, 4]: 1 ± 0.5 h
half-life [2, 4]: 7.2 ± 1.5 h
AUC(0-t) [2, 4]: 828 ± 180 ng·h/mL
AUC(0-inf) ([2]; SD, control + TC 60 mg/kg): 2100 ± 419 ng·h/mL
Cmax ([2]; SD, control + TC 60 mg/kg): 174 ± 13 ng/mL
MRT ([2]; SD, control + TC 60 mg/kg): 5.5 ± 0.03 h
Tmax ([2]; SD, control + TC 60 mg/kg): 3.3 ± 2.3 h
half-life ([2]; SD, control + TC 60 mg/kg): 6.4 ± 2.8 h
AUC(0-t) ([2]; SD, control + TC 60 mg/kg): 1406 ± 4.3 ng·h/mL
Cmax ([2]; Sprague-Dawley, bile depletion + TC 60 mg/kg): 163 ± 28.4 ng/mL
IC50 (786-O): 29400 nM
